Assay results as given in patent publication US20100256214A1, “EPH RECEPTOR LIGANDS AND METHODS OF USE” (Burnham Institute for Medical Research, priority 2009, published 2010).
Where two headings read alike, the source gives them in different places.

Key:
EphA4 = EphA4 (Homo sapiens, UniProt P54764); assay: ELISA, ephrin-A5 AP binding to immobilized EphA4 Fc; conditions: for IC50: read-out: IC50 for inhibition of ephrin-A5 AP binding to EphA4
Procedure: ELISA Assays and K, Determination—Protein A-coated wells (Pierce Biotecnology, Rockford, Ill.) were used to immobilize ephrin Fc fusion proteins (R&D Systems, Minneapolis, Minn.). Compounds at different concentrations were incubated with EphA4 AP (Cheng and Flanagan, (1994) Cell 79(1), 157-168) or EphA2 AP (Koolpe et al. (2002) J Biol Chem 277(49), 46974-46979) for 3 hours. Alternatively, Eph receptor Fc fusion proteins were immobilized on protein A-coated wells and ephrin-A5 AP (Menzel et al. (2001) Developmental Biology 230(1), 74-88) or ephrin-B2 AP (GeneHunter, Nashville, Tenn.) were added with the compounds. The amount of bound AP-fusion protein was quantified using pNPP as the substrate. Alkaline phosphatase activity from wells with Fc only was subtracted as background. To confirm that the binding of the compounds to EphA4 was reversible, the compounds were removed and the wells were incubated in binding buffer for 3 hours before washing and incubating with ephrin AP fusion proteins. Under these conditions, no inhibition of ephrin binding was observed indicating the reversible binding of the compounds.
To calculate the inhibition constant (KO values, the binding of ephrin-A5 AP to EphA4 Fc immobilized on protein A-coated wells was measured in the absence and in the presence of the compounds at different concentrations. Each data set was fitted to the Michaelis-Menten equation: B=Bmax [S]/(KD+[S]), where [S] is the concentration of ephrin AP fusion protein and KD is the dissociation constant observed in the absence or in the presence of the compound, using non linear regression and the program GraphPad (Prism). To evaluate whether the inhibition is competitive, noncompetitive or uncompetitive the KD and Bmax values were determined at different compound concentrations. The Ki was obtained from the linear regression plot of KD/Bmax as a function of the concentration of the inhibitor according to: KD/Bmax=(KD[S])/(Ki·Bmax)+KD/Bmax. Alternatively, Ki values were obtained from the dose response curves, using the Cheng-Prusoff equation: Ki=IC50/(1+[S]/KD) (XX38, Cheng, Y., and Prusoff, W. H. (1973) Biochemical pharmacology 22(23), 3099-3108). Ephrin-A5 AP concentration were calculated from alkaline phosphatase activity (Flanagan et al. (2000) Methods in Enzymology. 327, 19-35).

alkaline phosphatase = assay: Control: alkaline phosphatase activity in solution; format: biochemical
[1] = from ephrin-A5 AP binding curves at different compound concentrations, read-out: Ki, competitive inhibition of EphA4-ephrin-A5 binding
[2] = from other inhibition curves using different ephrin concentrations, read-out: Ki calculated with the Cheng-Prusoff equation, EphA4-ephrin-A5
[3] = from the inhibition curves shown in FIG. 2, read-out: Ki calculated with the Cheng-Prusoff equation, EphA4-ephrin-A5

Sequence of EphA4 (P54764 20-547 limits assumed, species assumed): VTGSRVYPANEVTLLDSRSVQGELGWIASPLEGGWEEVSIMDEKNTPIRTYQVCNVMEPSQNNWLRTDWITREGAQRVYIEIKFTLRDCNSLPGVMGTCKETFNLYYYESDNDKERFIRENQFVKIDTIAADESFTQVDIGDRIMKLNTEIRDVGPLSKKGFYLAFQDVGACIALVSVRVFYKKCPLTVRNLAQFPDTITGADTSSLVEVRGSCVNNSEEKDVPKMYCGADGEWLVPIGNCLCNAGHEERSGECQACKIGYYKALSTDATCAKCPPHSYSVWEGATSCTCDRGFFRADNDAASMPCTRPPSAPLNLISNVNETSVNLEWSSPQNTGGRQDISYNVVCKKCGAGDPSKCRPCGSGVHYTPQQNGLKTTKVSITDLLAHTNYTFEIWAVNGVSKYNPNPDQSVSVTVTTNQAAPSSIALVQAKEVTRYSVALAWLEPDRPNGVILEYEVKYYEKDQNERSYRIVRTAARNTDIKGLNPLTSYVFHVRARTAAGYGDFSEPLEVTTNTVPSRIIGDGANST

SMILES	inhibition of EphA4-ephrin-A5 binding (in words) (EphA4)	reversibility of binding to EphA4 (EphA4; compounds removed, 3 hours in binding buffer before ephrin AP)	Ki (EphA4; [1])	Ki (EphA4; [2])	Ki (EphA4; [3])	IC50 (EphA4)	inhibition of alkaline phosphatase activity (control) (alkaline phosphatase)
Cc1ccc(C)n1-c1ccc(C(=O)O)c(O)c1 [compound 1, 4-(2,5-dimethyl-pyrrol-1-yl)-2-hydroxy-benzoic acid]	inhibit	binds reversibly	8 µM	6 to 10 µM	10 µM	13 µM	does not inhibit
Cc1ccc(C)n1-c1ccc(O)c(C(=O)O)c1 [compound 2, 5-(2,5 dimethyl-pyrrol-1-yl)-2-hydroxy-benzoic acid]	inhibit	–	7 µM	6 to 8 µM	6 µM	9 µM	–
